Results from ChEMBL document CHEMBL4334498, “Structures, NMR Spectroscopic Features, and Cytotoxic Properties of Oligomeric Hellinoyl (m-GO-m-GOG)-Type Ellagitannins from the Galls of Tamarix aphylla” (J Nat Prod, 2019).

Experiments:
HSC-2 = test: Cytotoxicity against human HSC2 cells assessed as reduction in cell viability incubated for 48 hrs by MTT assay; assay type: functional; conditions: HSC-2, 48 h
[1] = Cytotoxicity against human Pulp Cell cells assessed as reduction in cell viability incubated for 48 hrs by MTT assay; assay type: cell-based
HSC-4 = test: Cytotoxicity against human HSC4 cells assessed as reduction in cell viability incubated for 48 hrs by MTT assay; assay type: functional; conditions: HSC-4, 48 h
[2] = Cytotoxicity against human HPLF cells assessed as reduction in cell viability incubated for 48 hrs by MTT assay; assay type: cell-based
[3] = Cytotoxicity against human HGF cells assessed as reduction in cell viability incubated for 48 hrs by MTT assay; assay type: cell-based
Ca9-22 = test: Cytotoxicity against human Ca9-22 cells assessed as reduction in cell viability incubated for 48 hrs by MTT assay; assay type: functional; conditions: Ca9-22, 48 h

O=c1[nH]cc(F)c(=O)[nH]1 [FLUOROURACIL]
CC50 (HSC-2): 47 µM
CC50 at 48 h [1]: > 1000 µM
CC50 (HSC-4): 25 µM
CC50 at 48 h [2]: > 1000 µM
CC50 at 48 h [3]: > 1000 µM
CC50 (Ca9-22): 262 µM

O=C(O)c1cc(O)c(O)c(Oc2c(C(=O)O)cc(Oc3c(C(=O)O)cc(O)c(O)c3O)c(O)c2O)c1
CC50 (HSC-2): 246 µM
CC50 at 48 h [1]: > 395 µM
CC50 (HSC-4): 153 µM
CC50 at 48 h [2]: > 395 µM
CC50 at 48 h [3]: > 395 µM
CC50 (Ca9-22): 345 µM

COc1cccc2c1C(=O)c1c(O)c3c(c(O)c1C2=O)C[C@@](O)(C(=O)CO)C[C@@H]3O[C@H]1C[C@H](N)[C@H](O)[C@H](C)O1 [DOXORUBICIN]
CC50 at 48 h [1]: > 10 µM
CC50 (HSC-4): 0.1 µM
CC50 at 48 h [2]: > 10 µM
CC50 at 48 h [3]: > 10 µM
CC50 (Ca9-22): 0.7 µM

O=C(O[C@@H]1O[C@@H]2COC(=O)c3cc(O)c(O)c(O)c3-c3c(cc(O)c(O)c3O)C(=O)O[C@H]2[C@H](OC(=O)c2cc(O)c(O)c(O)c2)[C@H]1OC(=O)c1cc(O)c(O)c(O)c1Oc1cc(C(=O)O[C@@H]2O[C@@H]3COC(=O)c4cc(O)c(O)c(O)c4-c4c(cc(O)c(O)c4O)C(=O)O[C@H]3[C@H](OC(=O)c3cc(O)c(O)c(O)c3)[C@H]2OC(=O)c2cc(O)c(O)c(O)c2Oc2cc3c(c(O)c2O)Oc2cc(cc(O)c2O)C(=O)O[C@@H]2O[C@@H]4COC(=O)c5cc(O)c(O)c(O)c5-c5c(cc(O)c(O)c5O)C(=O)O[C@H]4[C@H](OC(=O)c4cc(O)c(O)c(O)c4)[C@H]2OC3=O)cc(O)c1O)c1cc(O)c(O)c(Oc2c(C(=O)O[C@H]3C(O)O[C@@H]4COC(=O)c5cc(O)c(O)c(O)c5-c5c(cc(O)c(O)c5O)C(=O)O[C@H]4[C@@H]3OC(=O)c3cc(O)c(O)c(O)c3)cc(O)c(O)c2O)c1 (stereo not given in full)
CC50 (HSC-2): 25 µM
CC50 at 48 h [1]: > 56 µM
CC50 (HSC-4): 24 µM
CC50 at 48 h [2]: > 56 µM
CC50 at 48 h [3]: > 56 µM
CC50 (Ca9-22): 35 µM

O=C(O[C@@H]1O[C@@H]2COC(=O)c3cc(O)c(O)c(O)c3-c3c(cc(O)c(O)c3O)C(=O)O[C@H]2[C@H](OC(=O)c2cc(O)c(O)c(O)c2)[C@H]1OC(=O)c1cc(O)c(O)c(O)c1Oc1cc2c(c(O)c1O)Oc1cc(cc(O)c1O)C(=O)O[C@@H]1O[C@@H]3COC(=O)c4cc(O)c(O)c(O)c4-c4c(cc(O)c(O)c4O)C(=O)O[C@H]3[C@H](OC(=O)c3cc(O)c(O)c(O)c3)[C@H]1OC2=O)c1cc(O)c(O)c(Oc2c(C(=O)O[C@H]3C(O)O[C@@H]4COC(=O)c5cc(O)c(O)c(O)c5-c5c(cc(O)c(O)c5O)C(=O)O[C@H]4[C@@H]3OC(=O)c3cc(O)c(O)c(O)c3)cc(O)c(O)c2O)c1 (stereo not given in full)
CC50 (HSC-2): 23 µM
CC50 at 48 h [1]: > 75 µM
CC50 (HSC-4): 26 µM
CC50 at 48 h [2]: > 75 µM
CC50 at 48 h [3]: > 75 µM
CC50 (Ca9-22): 27 µM

O=C(OC[C@H]1O[C@H]2OC(=O)c3cc(O)c(O)c(c3)Oc3c(cc(Oc4c(C(=O)O[C@H]5[C@H](OC(=O)c6cc(O)c(O)c(O)c6)O[C@@H]6COC(=O)c7cc(O)c(O)c(O)c7-c7c(cc(O)c(O)c7O)C(=O)O[C@H]6[C@@H]5OC(=O)c5cc(O)c(O)c(O)c5)cc(O)c(O)c4O)c(O)c3O)C(=O)O[C@@H]2[C@@H](OC(=O)c2cc(O)c(O)c(O)c2)[C@@H]1O)c1cc(O)c(O)c(O)c1
CC50 (HSC-2): 21 µM
CC50 at 48 h [1]: > 116 µM
CC50 (HSC-4): 21 µM
CC50 at 48 h [2]: > 116 µM
CC50 at 48 h [3]: > 116 µM
CC50 (Ca9-22): 25 µM
